From patent US3965109A, “Certain aryl amino pyridines” (priority 1971, dated 1976)

Tests used:
[1] = system: Aedes aegypti (mosquito larvae); assay: Pest toxicity test; format: in vivo; settings: for Mortality grading (kill): 0.01% by weight, water, 1 day
Megoura viceae = assay: Pest toxicity test; format: in vivo; settings: 0.1% by weight; broad bean; 2 days
[2] = system: Puccinia recondita (wheat); assay: Fungicidal test against foliar disease A (foliage spray plus soil drench); format: in vivo; settings: 10 days; for Amount of disease grading, disease A (Table 4): 100 ppm spray and drench
[3] = system: Tetranychus telarius (red spider mites, adults); assay: Pest toxicity test; format: in vivo; settings: 0.1% by weight; French bean; 3 days
[4] = system: Agriolimax reticulatus (slugs); assay: Molluscicidal activity test; format: in vivo, Agriolimax reticulatus (Mull); settings: pellet with 4% by weight; 6 days; 10°C
Description: A weighed sample of the compound under test was dissolved in 0.5 c.c. of an ethanol and acetone mixture 50:50 v/v). The solution was diluted with 0.5 cc water and poured onto a calf feeding pellet in a glass Petri dish. The pellet was then air dried for 24 hours. The weight of compound used was chosen so that the dried pellet contained 4% by weight of the active ingredient. Two replicates each consisting of a plastic Petri dish containing a pellet, 2 slugs, and a moistened filter paper to maintain a high relative humidity were used in each test. The dishes were left in a cold room (10°C.) After 6 days the kill was assessed.
The slugs used were Agriolimax reticulatus (Mull), and they had been starved for 24 hours before the commencement of the tests.

Wheat = assay: Herbicidal test, pre- and post-emergence; format: in vivo; settings: 10 kg/ha; scale 0 to 3 (complete kill)
Uncinula necator (vine) = assay: Fungicidal test against foliar disease D (foliage spray plus soil drench); format: in vivo; settings: 10 days
[5] = system: Plasmopara viticola (vine); assay: Fungicidal test against foliar disease C (foliage spray plus soil drench); format: in vivo; settings: 10 days
Maize = assay: Herbicidal test, pre- and post-emergence; format: in vivo; settings: 10 kg/ha; scale 0 to 3 (complete kill)
Oat = assay: Further herbicidal test, various rates; format: in vivo; settings: 5 kg/hectare; scale 0 to 5 (complete kill)
[6] = system: Pieris brassicae (cabbage white caterpillars); assay: Pest toxicity test; format: in vivo; settings: 0.1% by weight, 2 days
[7] = system: Tetranychus telarius (red spider mites, eggs); assay: Pest toxicity test; format: in vivo; settings: 0.1% by weight; French bean; 3 days
[8] = system: Plutella maculipennis (diamond back moth larvae); assay: Pest toxicity test; format: in vivo; settings: in vivo
Lettuce = assay: Herbicidal test, pre- and post-emergence; format: in vivo; settings: 10 kg/ha; scale 0 to 3 (complete kill)
Aphis fabae = assay: Pest toxicity test; format: in vivo; settings: 0.1% by weight; broad bean; 2 days
Onion = assay: Further herbicidal test, various rates; format: in vivo; settings: 5 kg/hectare; scale 0 to 5 (complete kill)
[9] = system: Aedes aegypti (mosquito adults); assay: Pest toxicity test; format: in vivo; settings: 0.01% by weight; plywood; 1 day
Pea = assay: Further herbicidal test, various rates; format: in vivo; settings: 5 kg/hectare; scale 0 to 5 (complete kill)
Rice = assay: Further herbicidal test, various rates; format: in vivo; settings: 5 kg/hectare; scale 0 to 5 (complete kill)
Kale = assay: Further herbicidal test, various rates; format: in vivo; settings: 5 kg/hectare; scale 0 to 5 (complete kill)
[10] = system: Musca domestica (houseflies); assay: Pest toxicity test, contact test; format: in vivo; settings: 0.1% by weight; milk/sugar; 2 days; flies sprayed directly
Tomato = assay: Herbicidal test, pre- and post-emergence; format: in vivo; settings: 10 kg/ha; scale 0 to 3 (complete kill)
Sugar beet = assay: Further herbicidal test, various rates; format: in vivo; settings: 5 kg/hectare; scale 0 to 5 (complete kill)
[11] = system: Phaedon cochleariae (mustard beetles); assay: Pest toxicity test; format: in vivo; settings: in vivo
Carrot = assay: Further herbicidal test, various rates; format: in vivo; settings: 5 kg/hectare; scale 0 to 5 (complete kill)
Barley = assay: Further herbicidal test, various rates; format: in vivo; settings: 5 kg/hectare; scale 0 to 5 (complete kill)
[12] = system: Phytophthora infestans (tomato); format: in vivo; settings: 50 ppm spray + 200 ppm soil drench; 3 days
[13] = system: Piricularia oryzae (rice); format: in vivo; settings: 7 days
[14] = 50 ppm spray + 200 ppm soil drench

| SMILES | Mortality grading (kill) [1] | Mortality grading (kill) (Megoura viceae) | Amount of disease grading, disease A (Table 4) [2] | Mortality grading (kill) [3] | % Kill of slugs [4] [%] | Damage to plants, post-emergence (Wheat) | Damage to plants, pre-emergence (Wheat) | Damage to plants, post-emergence (Maize) | Damage to plants, pre-emergence (Maize) | Damage to plants, pre-emergence (Oat) | Mortality grading (kill) [6] | Mortality grading (kill) [7] | Mortality grading (kill) [8] | Damage to plants, post-emergence (Lettuce) | Damage to plants, pre-emergence (Lettuce) | Mortality grading (kill) (Aphis fabae) | Damage to plants, pre-emergence (Onion) | Mortality grading (kill) [9] | Mortality grading (kill), contact test [10] | Mortality grading (kill) [11] | also measured |
| --- | --- | --- | --- | --- | --- | --- | --- | --- | --- | --- | --- | --- | --- | --- | --- | --- | --- | --- | --- | --- | --- |
| O=[N+]([O-])c1cc(Cl)c(Nc2c(Cl)c(F)nc(F)c2Cl)c(Cl)c1 [Compound 27, 3,5-Dichloro-2,6-difluoro-4(2,6-dichloro-4-nitroanilino)pyridine] | 3 (3 represents over 90% kill) | 3 (3 represents over 90% kill) | 0 (61 to 100) | 3 (3 represents over 90% kill) | 100 | 0 | 0 | 0 | 0 | 0 | 0 (O represents less than 30% kill) | 3 (3 represents over 90% kill) | 0 (key: O represents less than 30% kill; 1 represents 30 - 49% kill; 2 represents 60 - 90% kill; 3 represents over 90% kill; C indicates a chemosterilant effect.; A indicates an antifeeding effect.) | 3 | 3 | 3 (3 represents over 90% kill) | 0 | 2 (2 represents 60 - 90% kill) | 3 (3 represents over 90% kill) | 0 (key: O represents less than 30% kill; 1 represents 30 - 49% kill; 2 represents 60 - 90% kill; 3 represents over 90% kill; C indicates a chemosterilant effect.; A indicates an antifeeding effect.) | Amount of disease grading, disease D (Table 4) (Uncinula necator (vine); 100 ppm spray and drench): 3 (0 to 5); Amount of disease grading, disease C (Table 4) ([5]; 100 ppm spray and drench): 3 (0 to 5); Damage to plants, pre-emergence (Pea): 3; Damage to plants, pre-emergence (Rice): 0; Damage to plants, pre-emergence (Kale): 4; Damage to plants, post-emergence (Tomato): 1; Damage to plants, pre-emergence (Tomato): 3; Damage to plants, pre-emergence (Sugar beet): 4; Damage to plants, pre-emergence (Carrot): 4; Damage to plants, pre-emergence (Barley): 0 |
| O=[N+]([O-])c1ccc(Nc2c(Cl)c(Cl)nc(Cl)c2Cl)c([N+](=O)[O-])c1 [Compound 8, Tetrachloro-4(2,4-dinitroanilino)pyridine] | 0 (O represents less than 30% kill) | 0 (O represents less than 30% kill) | – | 3 (3 represents over 90% kill) | 100 | – | – | – | – | – | 0 (O represents less than 30% kill) | 3 (3 represents over 90% kill) | 0 (key: O represents less than 30% kill; 1 represents 30 - 49% kill; 2 represents 60 - 90% kill; 3 represents over 90% kill; C indicates a chemosterilant effect.; A indicates an antifeeding effect.) | – | – | 0 (O represents less than 30% kill) | – | 0 (O represents less than 30% kill) | 0 (O represents less than 30% kill) | 0 (key: O represents less than 30% kill; 1 represents 30 - 49% kill; 2 represents 60 - 90% kill; 3 represents over 90% kill; C indicates a chemosterilant effect.; A indicates an antifeeding effect.) | abnormal growth effects in larva of mosquitos ([1]; in vivo): abnormal growth effects; Amount of disease grading, disease A [2, 14]: 0 (61 to 100); Amount of disease grading, disease D (Uncinula necator (vine); [14]): 0 (61 to 100); Amount of disease grading, disease C [5, 14]: 3 (0 to 5); Amount of disease grading, disease B [12]: 3 (0 to 5); Amount of disease grading, disease E [13, 14]: 0 (61 to 100) |
| N#Cc1c(F)c(F)c(Nc2c(Cl)c(Cl)nc(Cl)c2Cl)c(F)c1F [Compound 42, 4(4-Cyano-2,3,5,6-tetrafluoroanilino)tetrachloropyridine] | 3 (3 represents over 90% kill) | 3 (3 represents over 90% kill) | 3 (0 to 5) | 3 (3 represents over 90% kill) | 50 | 0 | 3 | 0 | 3 | 4 | 3 (3 represents over 90% kill) | 3 (3 represents over 90% kill) | 0 (key: O represents less than 30% kill; 1 represents 30 - 49% kill; 2 represents 60 - 90% kill; 3 represents over 90% kill; C indicates a chemosterilant effect.; A indicates an antifeeding effect.) | 2 | 3 | 3 (3 represents over 90% kill) | 5 | 0 (O represents less than 30% kill) | 3 (3 represents over 90% kill) | 0 (key: O represents less than 30% kill; 1 represents 30 - 49% kill; 2 represents 60 - 90% kill; 3 represents over 90% kill; C indicates a chemosterilant effect.; A indicates an antifeeding effect.) | Damage to plants, post-emergence (Oat): 4; Damage to plants, post-emergence (Pea): 1; Damage to plants, pre-emergence (Pea): 2; Damage to plants, post-emergence (Rice): 0; Damage to plants, pre-emergence (Rice): 3; Damage to plants, post-emergence (Kale): 5; Damage to plants, pre-emergence (Kale): 4; Damage to plants, post-emergence (Tomato): 3; Damage to plants, pre-emergence (Tomato): 3; Damage to plants, post-emergence (Sugar beet): 5; Damage to plants, pre-emergence (Sugar beet): 5; Amount of disease grading, disease E (Table 4) ([13]; 100 ppm spray and drench): 0 (61 to 100); Damage to plants, post-emergence (Carrot): 5; Damage to plants, pre-emergence (Carrot): 5; Damage to plants, post-emergence (Barley): 1; Damage to plants, pre-emergence (Barley): 3 |
